The text below walks through data of US20070065898A1, “Fluorescence polarization assays for binding of caspase inhibitors and probes therefor” (Wyeth, priority 2005, published 2007).

The experiment addresses T1, caspase 3 (Homo sapiens, UniProt P42574).
T1 construct: His tag (C); made in house; host or cells: E. coli
T1 sequence (P42574 29-175 limits assumed): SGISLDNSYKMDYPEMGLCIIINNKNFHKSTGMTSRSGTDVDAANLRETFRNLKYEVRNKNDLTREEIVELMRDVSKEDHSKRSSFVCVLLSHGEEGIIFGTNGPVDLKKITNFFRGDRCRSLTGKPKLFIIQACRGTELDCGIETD
T1 sequence (P42574 176-277 limits assumed): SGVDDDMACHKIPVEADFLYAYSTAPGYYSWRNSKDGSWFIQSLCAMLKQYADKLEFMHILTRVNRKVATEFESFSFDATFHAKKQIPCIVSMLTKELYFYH
Kind of experiment: Determination of probe IC50: caspase inhibition assay, cleavage of fluorogenic substrate Ac-DEVD-AFC. The experiment is classed as biochemical. The note with it: substrate Ac-DEVD-AFC 25 μM; caspase added last; cleavage monitored 90 minutes, ex 400 nm / em 505 nm. As for the experimental part:
This standard pharmacological test procedure to assess the inhibition of recombinant caspase 3 activity of selected compounds was adapted from Thornbery, N., J. Biol. Chem. 1997 272(29) 17907-17911 and Stennicke, H. R. et al., J. Biol. Chem. 1997 272(41) 25719-25723. The procedure used and results obtained are briefly described below.
Caspase 3 was assayed at 23° C. (room temp) in 96-well plates using the internally quenched tetrapeptide substrate N-acetyl-aspartyl-glutamyl-valyl-aspartate-7-amino-4-trifluoromethyl coumarin (Ac-DEVD-AFC purchased from Biomol). The assays are conducted at pH 7.2 in a buffered system containing 20 mM PIPES, 100 mM NaCl, 1 mM EDTA, 0.1% CHAPS, 10% sucrose and 5 mM L-cysteine. The final concentration of the substrate is 25 μM. Enzymic cleavage between the aspartate and the AFC fluorophore liberates 7-amino-4-trifluoromethyl coumarin which is detected using an excitation wavelength of 400 nm and an emission wavelength of 505 nm in a SpectraMax GeminiXS plate reader operated at room temperature. A steady state rate of substrate cleavage is obtained for analysis. […]
The substrate Ac-DEVD-AFC (25 μM) was added to varying inhibitor (probe) concentrations ranging from 20 μM to 2 nM. […] The cleavage of the substrate by the enzyme (caspase) was monitored continuously for 90 minutes by exciting the substrate at 400 nm and monitoring the fluorescence at emission at 505 nm. […]

As usually defined, the IC50 is the concentration that inhibits the measured activity by half. A low value points to greater potency in that assay. As to `CN1C(=O)C(=O)c2cc(S(=O)(=O)N3CCC[C@H]3CNC(=O)c3ccc(-c4c5ccc(=O)cc-5oc5cc(O)ccc45)c(C(=O)O)c3)ccc21` [Example 1, 2-(6-Hydroxy-3-oxo-3H-xanthen-9-yl)-5-{[({(2S)-1-[(1-methyl-2,3-dioxo-2,3-dihydro-1H-indol-5-yl)sulfonyl]pyrrolidin-2-yl}methyl)amino]carbonyl}benzoic acid], the IC50 stood at 10 nM.
The result for `CN1C(=O)C(=O)c2cc(S(=O)(=O)N3CCC[C@H]3CNC(=O)CCCCCNC(=O)c3ccc(-c4c5ccc(=O)cc-5oc5cc(O)ccc45)c(C(=O)O)c3)ccc21` [Example 2, 2-(6-Hydroxy-3-oxo-3H-xanthen-9-yl)-5-[({6-[({(2S)-1-[(1-methyl-2,3-dioxo-2,3-dihydro-1H-indol-5-yl)sulfonyl]pyrrolidin-2-yl}methyl)amino]-6-oxohexyl}amino)carbonyl]benzoic acid] reads 15 nM.
